Where a name gives a salt, the structure may show the parent alone.
Molecular target: SERCA2a (Rattus norvegicus, UniProt P11507)
Assay: […]-ATP hydrolysis
Format: cell-based
Conditions: read-out: % Vmax at 500 nmol/L

Chain of SERCA2a (P11507 1-997 isoform P11507-2): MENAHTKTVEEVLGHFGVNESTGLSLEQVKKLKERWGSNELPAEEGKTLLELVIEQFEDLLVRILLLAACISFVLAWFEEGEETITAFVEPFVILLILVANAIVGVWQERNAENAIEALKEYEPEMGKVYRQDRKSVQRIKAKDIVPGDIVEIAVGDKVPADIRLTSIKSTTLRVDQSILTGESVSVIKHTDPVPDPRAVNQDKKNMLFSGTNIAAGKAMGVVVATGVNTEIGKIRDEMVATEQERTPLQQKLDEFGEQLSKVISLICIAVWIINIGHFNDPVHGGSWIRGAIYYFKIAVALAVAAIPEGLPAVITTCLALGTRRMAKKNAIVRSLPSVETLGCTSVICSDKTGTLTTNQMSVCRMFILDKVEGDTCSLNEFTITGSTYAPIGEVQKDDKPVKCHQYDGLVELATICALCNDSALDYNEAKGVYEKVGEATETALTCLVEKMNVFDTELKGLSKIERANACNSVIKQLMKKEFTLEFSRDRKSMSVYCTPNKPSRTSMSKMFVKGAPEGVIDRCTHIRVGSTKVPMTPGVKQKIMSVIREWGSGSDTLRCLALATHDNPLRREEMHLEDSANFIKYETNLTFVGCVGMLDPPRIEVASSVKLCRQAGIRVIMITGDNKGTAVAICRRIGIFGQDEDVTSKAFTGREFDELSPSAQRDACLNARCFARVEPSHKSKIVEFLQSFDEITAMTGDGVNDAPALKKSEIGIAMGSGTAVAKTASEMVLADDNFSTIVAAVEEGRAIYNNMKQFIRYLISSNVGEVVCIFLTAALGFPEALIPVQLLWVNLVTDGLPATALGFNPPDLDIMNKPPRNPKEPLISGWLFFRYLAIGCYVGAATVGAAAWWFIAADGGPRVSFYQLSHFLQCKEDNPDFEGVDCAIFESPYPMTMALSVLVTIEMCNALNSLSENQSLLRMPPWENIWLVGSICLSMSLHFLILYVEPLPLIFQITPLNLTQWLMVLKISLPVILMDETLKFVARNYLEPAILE

SMILES: C[C@]12CCC(=NOCCN)C[C@@H]1C(=O)C[C@@H]1[C@@H]2CC[C@]2(C)C(=O)CC[C@@H]12 [istaroxime, (E,Z)-3-((2-aminoethoxy)imino)androstane-6,17-dione hydrochloride]
- activation at 0.5 µM: 25%
